# Reference: ChEMBL document CHEMBL4000165, “Chemosensitizing effect of Paris Saponin I on Camptothecin and 10-hydroxycamptothecin in lung cancer cells via p38 MAPK, ERK, and Akt signaling pathways” (Eur J Med Chem, 2017)
# Calls of active or inactive are those of the source. The calls are words filed in the database; no cut-off is given here.
# Tests used:
# NCI-H446 [1] = assay: Induction of apoptosis in human NCI-H446 cells at 0.6 uM up to 20 mins in presence of CPT by acridine orange/ ethidium bromide staining based fluorescence microscopic method relative to control; type: functional
# NCI-H1299 [2] = assay: Induction of apoptosis in human NCI-H1299 cells assessed as increase in pro-apoptotic cells at 0.3 uM after 48 hrs in presence of HCPT by Annexin-V FITC/propidium iodide staining based flow cytometry; type: functional, cell-based
# [3] = target: T1, MAP kinase p38 (Homo sapiens) (UniProt O15264+Q15759+Q16539+P53778); assay: Increase in p38 MAPK phosphorylation in human NCI-H1299 cells at 0.3 uM in presence of HCPT by Western blot method; type: cell-based
# [4] = target: T1, MAP kinase p38 (Homo sapiens); assay: Increase in p38 MAPK phosphorylation in human NCI-H460 cells at 0.6 uM in presence of CPT by Western blot method; type: cell-based
# NCI-H446 [5] = assay: Induction of apoptosis in human NCI-H446 cells at 0.6 uM in presence of HCPT by Annexin-V FITC/propidium iodide staining based flow cytometry; type: functional, cell-based; conditions: TDE = time-dependent effect
# NCI-H446 [6] = assay: Induction of apoptosis in human NCI-H446 cells at 0.6 uM in presence of CPT by Annexin-V FITC/propidium iodide staining based flow cytometry; type: functional, cell-based; conditions: TDE = time-dependent effect
# NCI-H460 [7] = assay: Induction of apoptosis in human NCI-H460 cells at 0.6 uM after 24 to 48 hrs by Annexin-V FITC/propidium iodide staining based flow cytometry; type: functional, cell-based
# NCI-H446 [8] = assay: Effect on Akt protein expression in human NCI-H446 cells at 0.6 uM in presence of HCPT by Western blot method; type: functional, cell-based
# NCI-H460 [9] = assay: Cytotoxicity against human NCI-H460 cells assessed as reduction in cell viability at 0.3 to 0.6 uM after 48 hrs in presence of HCPT by MTT assay; type: functional, cell-based
# NCI-H460 [10] = assay: Induction of apoptosis in human NCI-H460 cells assessed as activation of caspase-3/7 at 0.6 uM after 48 hrs in presence of HCPT by luciferase reporter gene assay; type: functional, cell-based
# Homo sapiens [11] = species: Homo sapiens; assay: Decrease in Akt phosphorylation in human NCI-H460 cells at 0.6 uM in presence of HCPT by Western blot method; type: cell-based
# NCI-H1299 [12] = assay: Cytotoxicity against human NCI-H1299 cells assessed as reduction in cell viability after 48 hrs by MTT assay; type: functional, cell-based; conditions: NCI-H1299, 48 h
# NCI-H1299 [13] = assay: Decrease in p38 MAPK protein expression in human NCI-H1299 cells at 0.3 uM in presence of CPT by Western blot method; type: functional, cell-based
# NCI-H460 [14] = assay: Induction of apoptosis in human NCI-H460 cells assessed as increase in caspase-9 expression at 0.6 uM in presence of CPT by Western blot method; type: functional, cell-based
# NCI-H1299 [15] = assay: Induction of apoptosis in human NCI-H1299 cells assessed as activation of caspase-3/7 at 0.3 uM after 48 hrs in presence of CPT by luciferase reporter gene assay; type: functional, cell-based
# NCI-H1299 [16] = assay: Effect on ERK1/2 protein expression in human NCI-H1299 cells at 0.3 uM in presence of CPT by Western blot method; type: functional, cell-based
# [17] = target: T1, MAP kinase p38 (Homo sapiens); assay: Increase in p38 MAPK phosphorylation in human NCI-H460 cells at 0.6 uM in presence of HCPT by Western blot method; type: cell-based
# NCI-H446 [18] = assay: Induction of apoptosis in human NCI-H446 cells assessed as downregulation of Bcl-XL expression at 0.6 uM in presence of CPT by Western blot method; type: functional, cell-based
# NCI-H446 [19] = assay: Induction of apoptosis in human NCI-H446 cells assessed as activation of caspase-3/7 at 0.6 uM after 48 hrs in presence of HCPT by luciferase reporter gene assay; type: functional, cell-based
# NCI-H460 [20] = assay: Induction of apoptosis in human NCI-H460 cells at 0.6 uM in presence of HCPT by Annexin-V FITC/propidium iodide staining based flow cytometry; type: functional, cell-based; conditions: TDE = time-dependent effect
# NCI-H460 [21] = assay: Induction of apoptosis in human NCI-H460 cells assessed as activation of caspase-3/7 at 0.6 uM after 48 hrs in presence of CPT by luciferase reporter gene assay; type: functional, cell-based
# NCI-H460 [22] = assay: Induction of apoptosis in human NCI-H460 cells assessed as activation of caspase-3/7 at 0.6 uM after 48 hrs by luciferase reporter gene assay; type: functional, cell-based
# NCI-H446 [23] = assay: Effect on ERK1/2 protein expression in human NCI-H446 cells at 0.6 uM in presence of CPT by Western blot method; type: functional, cell-based
# NCI-H446 [24] = assay: Cytotoxicity against human NCI-H446 cells assessed as reduction in cell viability by measuring combinantion index at 0.3 to 0.6 uM after 48 hrs in presence of CPT by MTT assay; type: functional
# NCI-H1299 [25] = assay: Induction of apoptosis in human NCI-H1299 cells assessed as increase in total apoptotic cells at 0.3 uM after 48 hrs in presence of CPT by Annexin-V FITC/propidium iodide staining based flow cytometry; type: functional, cell-based
# NCI-H446 [26] = assay: Induction of apoptosis in human NCI-H446 cells assessed as activation of caspase-3/7 at 0.6 uM after 48 hrs by luciferase reporter gene assay; type: functional, cell-based
# NCI-H1299 [27] = assay: Induction of apoptosis in human NCI-H1299 cells assessed as activation of caspase-3/7 at 0.3 uM after 48 hrs by luciferase reporter gene assay; type: functional, cell-based
# NCI-H1299 [28] = assay: Effect on ERK1/2 protein expression in human NCI-H1299 cells at 0.3 uM in presence of HCPT by Western blot method; type: functional, cell-based
# NCI-H520 = assay: Cytotoxicity against human NCI-H520 cells assessed as reduction in cell viability at 0.3 to 0.6 uM after 48 hrs in presence of HCPT by MTT assay; type: functional, cell-based
# NCI-H446 [29] = assay: Induction of apoptosis in human NCI-H446 cells assessed as increase in cleaved PARP expression at 0.6 uM in presence of CPT by Western blot method; type: functional, cell-based
# Homo sapiens [30] = species: Homo sapiens; assay: Effect on Akt phosphorylation in human NCI-H446 cells at 0.6 uM in presence of CPT by Western blot method; type: cell-based
# NCI-H460 [31] = assay: Cytotoxicity against human NCI-H460 cells assessed as reduction in cell viability after 48 hrs by MTT assay; type: functional, cell-based; conditions: NCI-H460, 48 h
# NCI-H446 [32] = assay: Cytotoxicity against human NCI-H446 cells assessed as reduction in cell viability at 0.3 to 0.6 uM after 48 hrs in presence of HCPT by MTT assay; type: functional, cell-based
# NCI-H446 [33] = assay: Induction of apoptosis in human NCI-H446 cells at 0.6 uM up to 20 mins in presence of HCPT by acridine orange/ ethidium bromide staining based fluorescence microscopic method relative to control; type: functional
# NCI-H446 [34] = assay: Induction of apoptosis in human NCI-H446 cells assessed as increase in cytochrome-C expression at 0.6 uM in presence of CPT by Western blot method; type: functional, cell-based
# NCI-H446 [35] = assay: Induction of apoptosis in human NCI-H446 cells assessed as activation of caspase-3/7 at 0.6 uM after 48 hrs in presence of CPT by luciferase reporter gene assay; type: functional, cell-based
structure (smiles),measurement,setting,value
C[C@@H]1CC[C@@]2(OC1)O[C@H]1C[C@H]3[C@@H]4CC=C5C[C@@H](O[C@@H]6O[C@H](CO)[C@@H](O[C@@H]7O[C@@H](CO)[C@H](O)[C@H]7O)[C@H](O)[C@H]6O[C@@H]6O[C@@H](C)[C@H](O)[C@@H](O)[C@H]6O)CC[C@]5(C)[C@H]4CC[C@]3(C)[C@H]1[C@@H]2C,fold change (FC),NCI-H446 [1],2
same,Activity,NCI-H1299 [2],Active
same,Activity,[3],Active
same,Activity,[4],Active
same,Activity,NCI-H446 [5],Tde
same,Activity,NCI-H446 [6],Tde
same,Activity,NCI-H460 [7],Active
same,Activity,NCI-H446 [8],inactive
same,Activity,NCI-H460 [9],Active
same,Activity,NCI-H460 [10],Active
same,Activity,Homo sapiens [11],Active
same,IC50,NCI-H1299 [12],< 1000 nM
same,Activity,NCI-H1299 [13],Active
same,Activity,NCI-H460 [14],Active
same,Activity,NCI-H1299 [15],Active
same,Activity,NCI-H1299 [16],inactive
same,Activity,[17],Active
same,Activity,NCI-H446 [18],Active
same,Activity,NCI-H446 [19],Active
same,Activity,NCI-H460 [20],Tde
same,Activity,NCI-H460 [21],Active
same,Activity,NCI-H460 [22],inactive
same,Activity,NCI-H446 [23],Active
same,CI,NCI-H446 [24],<1
same,Activity,NCI-H1299 [25],Active
same,Activity,NCI-H446 [26],inactive
same,Activity,NCI-H1299 [27],inactive
same,Activity,NCI-H1299 [28],inactive
same,Activity,NCI-H520,Active
same,Activity,NCI-H446 [29],Active
same,Activity,Homo sapiens [30],Active
same,IC50,NCI-H460 [31],< 1000 nM
same,Activity,NCI-H446 [32],Active
same,fold change (FC),NCI-H446 [33],2
same,Activity,NCI-H446 [34],Active
same,Activity,NCI-H446 [35],Active
